Measured values as given in patent US6743576B1, “Database system for predictive cellular bioinformatics” (Cytokinetics, Inc., priority 1999, dated 2004).

Key:
Format in all cases: cell-based
[1] = test system: HeLa cells; experiment: Automated Hoechst image analysis of HeLa cells treated with 6 known compounds; details: 10 ug/mL, 24 hours, 10x objective, FIG. 11
Source text: In a third experiment, the purpose was to determine whether the automated analysis methods developed in the first experiment can detect differences in Hoechst morphology in the presence of 6 known compounds at one concentration and exposure time in one cell line. In this experiment, HeLa cells were separately treated with 6 compounds with known mechanism of action. The quantitative methods described in the first experiment were applied to the Hoechst images.
Approximately 5,000 HeLa cells per well were plated in a Costar black-walled 96 well tissue culture treated plate and left to recover in the incubator for 24 hours. After this time, 10 ug/mL of cytochalasin D (CD), Taxol, hydroxyurea, vinblastine, nocodazole, and staurosporine was added to different wells at a 1:100 addition in DMSO. The cells were incubated in the presence of drug for 24 more hours. After 24 hours, the cells were removed and fixed as in the first experiment. Then, 9 images per well were collected of the Hoechst staining using a 10× objective.
The low magnification images taken of Hoechst were run through the automated image analysis method described in the first experiment. Plots of the average intensity and area were made of each compound. […] The scatter plots of each compound are visually distinct. […] Furthermore, the number of cells per well was very different (data not shown).

[2] = test system: HeLa cells; experiment: High magnification Hoechst and phalloidin images of HeLa cells in the presence of drugs; details: 10 ug/mL, 24 hours, 40x objective, vs DMSO control, FIG. 12
Protocol: A fourth experiment was performed to obtain high magnification images of two markers in the presence of drugs. In this experiment, HeLa cells were treated with 80 generic compounds with known mechanism of action. The quantitative methods described in the first experiment were applied to the Hoechst images.
Approximately 5,000 HeLa cells per well were plated in a Costar black walled 96 well tissue culture-treated plate and left to recover in the incubator for 24 hours. After this time, 10 ug/mL of each compound from the Killer Plate from Microsource Discovery Systems (Gaylordsville, Conn.) was added to different wells at a 1:100 addition in DMSO. The cells were incubated in the presence of drug for 24 more hours. After 24 hours, the cells were removed and fixed as in the first experiment. In addition to being labeled with Hoechst 33342 (against chromatin), cells were also labeled with 1 unit of rhodamine-conjugated phalloidin (against actin) for 30 minutes.
The 96 well plate was imaged twice. Once, 9 images per well were collected of the Hoechst staining using a 10× objective. After this, one image per well of both the phalloidin and Hoechst staining was collected using a 40× objective.
The resulting high magnification images were analyzed qualitatively and distinct pattern differences were detected in both the Hoechst and phalloidin images. […] The top row is the Hoechst staining, and the bottom row is the phalloidin staining from the same well. The columns show the images from wells treated with just DMSO (control), cytochalasin D, and Colchicine. Notice that the morphology of each marker is different in the presence of each drug.

[3] = test system: MDCK cells; experiment: Effects of Taxol on MDCK cells, Hoechst morphologies manually counted; details: 4.5 hours, 10 μM-1pM, FIG. 10
Protocol: In a second experiment, the effects of Taxol on MDCK cells and the different types of morphological effects were observed. A plurality of MDCK cells grown in 96 well plates were treated with Taxol for 4.5 hours at different concentrations (10 μM−1pM). They were then fixed, labeled with Hoechst, and imaged.
This experiment used a labeling protocol comprising: MEOH fix at −20°, Wash in PBS, Block in PBS/BSA/Serum/Triton-X 100, Incubate with 5 μg/ml Hoechst 10 minutes, and wash.
Cells were inspected for different morphologies and manually counted at each different drug concentration in one well. […] The next step is to test the automated Hoechst analysis of the first experiment with multiple drugs.

SMILES	cell (Hoechst object) size/area compared to control [1]	actin cytoskeleton morphology in the phalloidin image [2]	further results
NC(=O)NO [Hydroxyurea, hydroxyurea]	larger		brightness (average Hoechst intensity) compared to control [1]: brighter
COc1cc2c(c(OC)c1OC)-c1ccc(OC)c(=O)cc1[C@@H](NC(C)=O)CC2 [colchicine]		there is an effect on the actin cytoskeleton	
CC(=O)O[C@H]1C(=O)[C@@]2(C)[C@H]([C@H](OC(=O)c3ccccc3)[C@]3(O)C[C@H](OC(=O)[C@H](O)[C@@H](NC(=O)c4ccccc4)c4ccccc4)C(C)=C1C3(C)C)[C@]1(OC(C)=O)CO[C@@H]1C[C@@H]2O [Taxol, paclitaxel]			number of normal mitotic cells as a function of drug concentration [3]: fewer number of normal mitotic cells were detected; proportion of cells undergoing apoptosis as a function of drug concentration [3]: larger proportion of cells underwent apoptosis
C=C1[C@@H](C)[C@H]2[C@H](Cc3ccccc3)NC(=O)[C@]23[C@H](OC(C)=O)/C=C/[C@@](C)(O)C(=O)[C@@H](C)C/C=C/[C@H]3[C@@H]1O [cytochalasin D]	smaller than control	expected effect in the phalloidin image	morphology of the chromatin in the Hoechst image [2]: there is an effect in the morphology of the chromatin
